Laboratory results: patent US20030186817A1, “SUBSTITUTED 2,4-DIAMINO-1,3,5-TRIAZINES, PROCESSES FOR THEIR PREPARATION AND THEIR USE AS HERBICIDES AND PLANT GROWTH REGULATORS” (priority 1998, published 2003)

How the values were obtained:
Assay type in all cases: in vivo
[1] = test system: Stellaria media, Amaranthus retroflexus, Sinapis avreuse, Avena fatura, Lolium multiflorum and Setaria viridis; experiment: Pre-emergence action against weeds (greenhouse pot test, visual rating); settings: application rate of 3.0 kg or less of active substance per hectare, trial period of 3 to 4 weeks
Summary of the method: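 Seeds in sandy loam were treated pre-emergence by soil-surface application of WP or EC formulations at various dosages in 600–800 L water/ha. After 3–4 weeks in a greenhouse, damage or reduced emergence was rated visually against untreated controls.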

[2] = test system: Stellaria media, Amaranthus retroflexus, Sinapis avreuse, Avena fatura, Lolium multiflorum and Setaria viridis; experiment: Post-emergence action against weeds (greenhouse pot test, visual rating); settings: three-leaf stage, application rate of 3.0 kg or less of active substance per hectare, 3 to 4 weeks in greenhouse
Summary of the method: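 Greenhouse pot plants sown in sandy loam were sprayed at the three-leaf stage, 2–3 weeks after sowing. Compounds were formulated as wettable powders or emulsion concentrates and applied onto green parts at various dosages. Action was rated visually against untreated controls after 3–4 weeks.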

[3] = test system: Cyperus iria and Echinocloa crus-galli; experiment: Action on weeds in rice (paddy rice conditions, visual rating); settings: dammed height of water 2-3 cm, about three weeks after application; note: test concentration or dose not given here
From the text: Typical rice weeds such as Echinocloa crus galli and Cyperus iria are cultivated in a greenhouse under paddy rice conditions ([…] height of water: 2-3 cm). After the treatment, the test plants are set up in a greenhouse under optimum growth conditions and are maintained in this way under these conditions throughout the test period. About three weeks after application, evaluation is made by visual rating of the damage to the plants by comparison with untreated controls.

SMILES	herbicidal activity pre-emergence (damage to the plants or negative effect on emergence, rated visually) [1]	herbicidal activity post-emergence (rated visually) [2]	herbicidal activity against rice weeds (visual rating of damage) [3]
CC(CCOc1cccc(F)c1)Nc1nc(N)nc(C(C)(C)F)n1 (stereo not drawn) [Example 308]	good and in most cases very good herbicidal activity	good and in most cases very good herbicidal activity	very good herbicidal activity
COc1cccc(OCCC(C)Nc2nc(N)nc(C(F)(F)C(F)F)n2)c1 (stereo not drawn) [Example 311]	good and in most cases very good herbicidal activity	good and in most cases very good herbicidal activity	very good herbicidal activity
Cc1cccc(OCCC(C)Nc2nc(N)nc(C(F)(F)C(F)F)n2)c1 (stereo not drawn) [Example 326]	good and in most cases very good herbicidal activity	good and in most cases very good herbicidal activity	very good herbicidal activity
CC(CCOc1ccccc1)Nc1nc(N)nc(C(C)C)n1 (stereo not drawn) [Example 336]	good and in most cases very good herbicidal activity	good and in most cases very good herbicidal activity	very good herbicidal activity
CCC(CCOc1cc(C)cc(C)c1)Nc1nc(N)nc(C(C)C)n1 (stereo not drawn) [Example 340]	good and in most cases very good herbicidal activity	good and in most cases very good herbicidal activity	very good herbicidal activity
CCC(CCOc1cccc(Cl)c1)Nc1nc(N)nc(C(F)(F)C(F)F)n1 (stereo not drawn) [Example 347]	good and in most cases very good herbicidal activity	good and in most cases very good herbicidal activity	very good herbicidal activity
CCC(CCOc1cccc(C)c1)Nc1nc(N)nc(C(C)C)n1 (stereo not drawn) [Example 358]	good and in most cases very good herbicidal activity	good and in most cases very good herbicidal activity	very good herbicidal activity
CC(CCOc1ccccc1)Nc1nc(N)nc(C(C)(C)F)n1 (stereo not drawn) [Example 368, 2-amino-4-fluoroisopropyl-6-[N-(1-methyl-3-phenoxyprop-1-yl)amino]-1,3,5-triazine]	good and in most cases very good herbicidal activity	good and in most cases very good herbicidal activity	very good herbicidal activity
CCC(CCOc1ccccc1)Nc1nc(N)nc(C(C)(C)F)n1 (stereo not drawn) [Example 369]	good and in most cases very good herbicidal activity	good and in most cases very good herbicidal activity	very good herbicidal activity
CCC(CCOc1cc(F)cc(F)c1)Nc1nc(N)nc(C(C)(C)F)n1 (stereo not drawn) [Example 370]	good and in most cases very good herbicidal activity	good and in most cases very good herbicidal activity	very good herbicidal activity
CCC(CCOc1cccc(Cl)c1)Nc1nc(N)nc(C(C)C)n1 (stereo not drawn) [Example 372]	good and in most cases very good herbicidal activity	good and in most cases very good herbicidal activity	very good herbicidal activity
CCC(CCOc1cccc(OC)c1)Nc1nc(N)nc(C(C)C)n1 (stereo not drawn) [Example 376]	good and in most cases very good herbicidal activity	good and in most cases very good herbicidal activity	very good herbicidal activity
CCC(CCOc1cccc(Cl)c1)Nc1nc(N)nc(C(C)(C)F)n1 (stereo not drawn) [Example 380]	good and in most cases very good herbicidal activity	good and in most cases very good herbicidal activity	very good herbicidal activity
CCC(CCOc1cccc(F)c1)Nc1nc(N)nc(C(C)C)n1 (stereo not drawn) [Example 381]	good and in most cases very good herbicidal activity	good and in most cases very good herbicidal activity	very good herbicidal activity
CCC(CCOc1cccc(OC)c1)Nc1nc(N)nc(C(C)(C)F)n1 (stereo not drawn) [Example 384]	good and in most cases very good herbicidal activity	good and in most cases very good herbicidal activity	very good herbicidal activity
